According to patent US8859615B2, “Compounds, compositions and methods for reducing toxicity and treating or preventing diseases” (priority 2008, dated 2014):
Entries after “also recorded” stand apart in the source; their conditions may differ. Like-named read-outs stand apart in the source and are kept apart here.

Assays:
[1] = tested on: CCRF-CEM/VBL100 vinblastine-resistant cells; experiment: In vitro cytotoxicity against vinblastine-resistant CCRF-CEM subline; type: cell-based, human; conditions: for IC50: Homo sapiens, CCRF-CEM, 72 h; for fold of cross-resistance (CCRF-CEM/Vinblastine vs parent cell line): Table 3D, given as x or -fold
[2] = tested on: CCRF-CEM subline resistant to TAXOL; experiment: In vitro cytotoxicity against TAXOL-resistant CCRF-CEM subline; type: cell-based, human; conditions: for IC50: Homo sapiens, CCRF-CEM; for fold of cross-resistance (CCRF-CEM/TAXOL vs parent cell line): Table 3D, given as x or -fold
human PBMC lymphocytes = experiment: DNA synthesis ([3H]thymidine incorporation) in human PBMC lymphocytes (FIG. 8); type: cell-based; conditions: for maximal human lymphocyte stimulation concentration: at 120 hrs, FIG. 8B, C, D
Source text: FIG. 8 show the effects of PHA and different concentrations of compounds of the invention, at different time points, on the proliferation of a culture of human lymphocytes as measured by DNA synthesis through incorporation of radiolabeled thymidine into the DNA.
The main principle and method of experiments for human PBMC lymphocytes and for mouse splenocytes stimulations were the same, since both measure immunological cell stimulation by PHA, PXT and compounds of the invention. Both the lymphocyte and the splenocyte assays measure the ^3H-dThd tracer as an indication of DNA synthesis. For PBMC lymphocytes (FIGS. 9A-9G), the experimental methods are those for splenocytes disclosed in Example 24 (FIGS. 11A-11F; FIGS. 12A-12E), except 0.282×10^6 PBMC lymphocyte cells in 198.5 μl was used, and the experimental incubation time was extended to 120 hr.
Briefly, to generate the data in Tables 8A and 8B, the compounds were tested in a [^3H] thymidine uptake experiment using PBMC human lymphocytes obtained from the New York Blood Center. PBMC human lymphocytes were exposed to compounds at 0.03, 0.1, 0.3, and 1.0 μM for 24 hours, and examined for increased [^3H] thymidine uptake. Human lymphocytes were also exposed to compounds for an extended time, e.g., 48 hrs and 72 hrs, instead of 24 hrs, in the [^3H] thymidine uptake assay, and examined to determine the extent of increased [^3H] thymidine uptake to determine if extended exposure will further increase the immune-enhancing effects of the compounds. Increased [^3H] thymidine uptake is interpreted as increased DNA synthesis, which indicates cell growth and division. In the case of immune system cells, this should result in an immune-enhancing effect. The compounds are compared by their IC50 values and/or their effect on [^3H] thymidine uptake at a given concentration and/or time point.

[3] = tested on: normal human PBMC lymphocytes; experiment: Human PBMC lymphocyte viability by actual cell counts (hemacytometer; Tables 8A, 8B, FIG. 9); type: cell-based; conditions: for survival / proliferation of normal PBMC lymphocytes: low concentrations, Tables 8
Source text: FIGS. 9A & 9B show effects of panaxytriol and Compound D, respectively, in varying doses at 24 (▪), 72 (●), and 120 (▴) hours on human PBMC lymphocyte survival based on actual cell counts. In both cases, lower amounts of the compounds increase cell proliferation. […] Cell counts in controls without active agent were: at 24 hrs: 75.4%; at 72 hrs: 93.0%; and at 120 hrs: 85.7%. FIG. 9 parallel the experiments in FIG. 8 but used a different method to determine cell survival; the method used in FIG. 9 was actual cell counting using a hemocytometer and microscope.
The effects of panaxytriol and Compound D on the viability of normal human PBMC lymphocytes shown in Tables 8A and 8B were determined using hemacytometer/microscope determinations. PBMC cells were obtained fresh from the New York Blood Center, New York, N.Y. 10021 (Dr. S. B. Jiang). Cell counts were performed in duplicate for 0, 0.1, 0.3, 1.0, 3.0, and 10.0 μM of each compound at the end of 24 hr, 72 hr, and 120 hr incubations. Incubation was carried out in RPMI 1640 medium (GIBCO/BRL) with 10% heat inactivated fetal bovine serum. […] Acad. Sci. USA 98: 8113-8118, 2001.

[4] = tested on: human mammary carcinoma MX-1 xenograft; experiment: Therapeutic effect and body weight in nude mice bearing MX-1 xenograft, single agents; conditions: for antitumor effects against MX-1 xenografts: mouse, in vivo; for body weight decrease upon treatment: up to the highest dosage levels (100 mg/kg)
Description: FIGS. 1A and 1B show the therapeutic, anti-cancer effects of various dosage regimens of panaxytriol and Compound (A), respectively, given by i.v. injection in nude mice bearing human mammary carcinoma MX-1 xenograft tumors, which is an in vivo model for breast cancer. […] The compounds were administered starting on day 8.
An in vivo assay uses male athymic nude mice bearing the nu/nu gene (6 weeks of age or older, weighing between 20 and 22 g, obtainable from NCl, Frederick, Md.) into which one or more human tumor xenografts are been implanted.
Nude mice having human mammary carcinoma xenograft MX-1 were treated with panaxytriol or Compound (A) at various dosages through the slow i.v. infusion protocol by Chou et al. (Chou, T. C., et al, Proc. Natl. Acad. Sci. U.S.A. 95: 15798 (1998), the contents of which are herein incorporated by reference in their entirety).

[5] = read-out: IC50 CCRF-CEM/Vinblastine
[6] = 72 h, read-out: IC50 CCRF-CEM/TAXOL

C=C[C@H](O)C#CC#CC[C@H]1OC(C)(C)O[C@@H]1CCCCCCC [Compound (D)]
IC50 ([1]; Table 3A-2, CCK-8, 72-hr exposure, read-out: CCRF-CEM/VBL (IC50 in μM)): 2.55 µM | IC50 [1, 5]: 0.947 µM | cross-resistance to TAXOL or vinblastine ([1]; TAXOL- or vinblastine-resistant (MDR) sublines): do not appear to be cross-resistant to TAXOL or vinblastine | Fold of resistance (IC50 ratio CCRF-CEM/VBL vs CCRF-CEM) ([1]; Table 3A-2): 2.24 fold | analog is fold more potent (than Compound (A)) ([1]; Table 3A, CCRF-CEM/VBL): (analog is 1.19-fold | fold of cross-resistance (CCRF-CEM/Vinblastine vs parent cell line) [1]: 1.98 fold | IC50 [2, 6]: 1.03 µM | IC50 ([2]; Table 3A-2, CCK-8, 72-hr exposure, read-out: CCRF-CEM/TAXOL (IC50 in μM)): 1.02 µM | Fold of resistance (IC50 ratio CCRF-CEM/TAXOL vs CCRF-CEM) ([2]; Table 3A-2): 0.90 fold | fold of cross-resistance (CCRF-CEM/TAXOL vs parent cell line) [2]: 2.17 fold | time of maximal stimulation of lymphocyte (human PBMC lymphocytes): 120 h | potency relative to panaxytriol (concentrations for lymphocyte or splenocyte maximal activation) (human PBMC lymphocytes; FIGS. 8, 9, 10, 11): ≥ 10 fold | maximal human lymphocyte stimulation concentration (human PBMC lymphocytes): 0.3 µM | high concentrations increasing cell death ([3]; human): 3 to 10 µM | survival / proliferation of normal PBMC lymphocytes [3]: increased the survival | MX-1 xenograft suppressed by the compound by itself ([4]; 10 mg/kg i.v. Q4D×4): 10% | MX-1 xenograft inhibited ([4]; 15 mg/kg Q2D×1, 40 mg/kg Q2D×4): 38.3% | effectiveness compared with panaxytriol ([4]; MX-1 xenografts): more effective at lower doses than panaxytriol | antitumor effects against MX-1 xenografts [4]: antitumor effects

C=C[C@@H](O)C#CC#CC[C@@H](O)[C@H](O)CCCCCCC [panaxytriol]
IC50 ([1]; read-out: CCRF-CEM/VBL (IC50 in μM)): 4.43 µM | IC50 ([1]; read-out: IC50 CCRF ± CEM/VBL): 14.6 ± 6.92 µM | IC50 [1, 5]: 6.39 µM | fold resistance in brackets (IC50 CCRF-CEM/VBL vs CCRF-CEM) ([1]; Table 3): 1.20 x | Fold of resistance (IC50 ratio CCRF-CEM/VBL vs CCRF-CEM) ([1]; Table 3A-2): 1.20 fold | fold of cross-resistance (CCRF-CEM/Vinblastine vs parent cell line) [1]: 1.27 fold | IC50 ([2]; 72 h, read-out: CCRF-CEM/TAXOL (IC50 in μM)): 3.09 µM | IC50 [2, 6]: 5.22 µM | Fold of resistance (IC50 ratio CCRF-CEM/TAXOL vs CCRF-CEM) ([2]; Table 3A-2): 0.84 fold | fold of cross-resistance (CCRF-CEM/TAXOL vs parent cell line) [2]: 1.04 fold | maximal human lymphocyte stimulation concentration (human PBMC lymphocytes): 3 µM | time of maximal activation (cell counts) ([3]; FIGS. 9A, 9B): 24 h | survival / proliferation of normal PBMC lymphocytes [3]: increased the survival; also recorded: increases the proliferation and prolongs the life-span of normal lymphocytes | suppression of tumor growth ([4]; 30 mg/kg): some suppression of tumor growth | tumor suppression compared to the control tumor size ([4]; Day 24, i.v. injection Q2D, escalating doses from day 8, FIGS. 1A, 1B): 52.3% | evidence of toxicity (body weight) ([4]; FIGS. 1C, 1D, i.v. injections up to 100 mg/kg): no evidence | MX-1 xenograft tumor growth suppressed by ([4]; Q2D i.v. injection 50-100 mg/kg of multiple doses (FIG. 1A)): 53% | antitumor effects against MX-1 xenografts [4]: antitumor effects | body weight decrease upon treatment [4]: no body weight decrease | body weight decrease upon treatment ([4]; listed as Panaxytriol): without a drop in body-weight
